Measured values from patent US5519028A, “Antiviral preparations” (priority 1992, dated 1996).

Tests used:
Type in all cases: cell-based, human
[1] = tested on: interleukin-6; assay: IL-6 production by monocytes of HIV-positive donors
Procedure: (§1) The effects of flavopereirine on the production of primary (IL-1β and TNF-α) and secondary (IL-6) cytokines by monocytes was also tested. The adhesive monocytes used were taken from the blood of two types of donors:
HIV-positive donors from medical consultations. These individuals were in the early stages of HIV infection and, at the moment of taking the blood, were not undergoing any treatment. The risk factors involved were intravenous drug abuse for six of the donors, sexual transmission for three and blood transfusion (in Zaire) for one patient. No correlation was found between the risk factors and the results of the experiments.
The response of the monocytes taken from the various HIV-positive donors was tested in terms of spontaneous response. The quantities of cells received were low (the donors were not affected by cytapheresy), and the experiments were therefore limited by the number of cells available.
Interleukin-4 was used at the same time as flavopereirine H, since it has been shown prior to these experiments that this cytokine blocks the spontaneous production of interleukin-6 in certain HIV-positive patients.
In five cases, […] was used for comparison, since this, too, blocks the production of IL-6 in normal monocytes stimulated by LPS.

[2] = tested on: TNF-α; assay: TNF-α production by monocytes of normal donors; settings: 1000 U/ml, 48 hours
Procedure: as §1
(§2) Normal donors--voluntary blood donors who attended the blood bank of the Pitie-Salpetriere Hospital, Paris, France; and
(§3) Product H was not used in these experiments at a rate of more than 20 μg/ml water, since above this rate, net toxicity could have been produced.

[3] = tested on: IL-1β; assay: IL-1β production by monocytes of normal donors; settings: 1000 U/ml, 48 hours; except donor #10
Procedure: as §1, §2, §3

Interleukin-9: blocks the production of IL-6 in normal monocytes stimulated by LPS
compound effect with interleukin-4 on IL-6 production ([1]; combined with interleukin-4, five cases): never has a compound effect to that of interleukin-4
maximum inhibition of spontaneous production of IL-6 ([1]; five cases): ≤ 50%

interferon: stimulation of monocytes over a period of 48 hours with interferon (1000 U/ml) [reference compound]
production of primary cytokines (TNF-α) [2]: did not cause any production of primary cytokines
production of primary cytokines (IL-1β) [3]: did not cause any production of primary cytokines, except in donor #10 in 1L-1β

B1: Interleukin-4: cytokine that blocks the spontaneous production of interleukin-6 in certain HIV-positive patients (protein, UniProt P05112 25-153, looked up)
Interleukin-4: HKCDITLQEIIKTLNSLTEQKTLCTELTVTDIFAASKNTTEKETFCRAATVLRQFYSHHEKDTRCLGATAQQFHRHKQLIRFLKRLDRNLWGLAGLNSCPVKEANQSTLENFLERLKTIMREKYSKCSS
inhibition of production of IL-6 ([1]; alone, never total, p<0.05): inhibited the production of IL-6, but this inhibition was never total
